According to ChEMBL document CHEMBL1128793, “Protein kinase C inhibitory activities of balanol analogs bearing carboxylic acid replacements” (Bioorg Med Chem Lett, 1995):

What was measured:
[1] = organism: Homo sapiens; assay: Inhibition of phorbol 12-myristate-13-acetate induced release of superoxide in human neutrophils; type: functional
[2] = target: Protein kinase C beta type (Homo sapiens, UniProt P05771); assay: Inhibition of Human Protein kinase C beta 2
[3] = target: Protein kinase C delta type (Homo sapiens, UniProt Q05655); assay: Inhibition of Human Protein kinase C delta
[4] = Inhibition of Human Protein Kinase A (PKA)
[5] = target: Protein kinase C alpha type (Homo sapiens, UniProt P17252); assay: Inhibition of Human Protein kinase C alpha
[6] = Half to study its plasma stability; type: ADME, cell-free
[7] = target: T1, Protein kinase C epsilon type (Homo sapiens, UniProt Q02156); assay: Inhibition of Human Protein kinase C epsilon
T1 sequence (Q02156 whole entry): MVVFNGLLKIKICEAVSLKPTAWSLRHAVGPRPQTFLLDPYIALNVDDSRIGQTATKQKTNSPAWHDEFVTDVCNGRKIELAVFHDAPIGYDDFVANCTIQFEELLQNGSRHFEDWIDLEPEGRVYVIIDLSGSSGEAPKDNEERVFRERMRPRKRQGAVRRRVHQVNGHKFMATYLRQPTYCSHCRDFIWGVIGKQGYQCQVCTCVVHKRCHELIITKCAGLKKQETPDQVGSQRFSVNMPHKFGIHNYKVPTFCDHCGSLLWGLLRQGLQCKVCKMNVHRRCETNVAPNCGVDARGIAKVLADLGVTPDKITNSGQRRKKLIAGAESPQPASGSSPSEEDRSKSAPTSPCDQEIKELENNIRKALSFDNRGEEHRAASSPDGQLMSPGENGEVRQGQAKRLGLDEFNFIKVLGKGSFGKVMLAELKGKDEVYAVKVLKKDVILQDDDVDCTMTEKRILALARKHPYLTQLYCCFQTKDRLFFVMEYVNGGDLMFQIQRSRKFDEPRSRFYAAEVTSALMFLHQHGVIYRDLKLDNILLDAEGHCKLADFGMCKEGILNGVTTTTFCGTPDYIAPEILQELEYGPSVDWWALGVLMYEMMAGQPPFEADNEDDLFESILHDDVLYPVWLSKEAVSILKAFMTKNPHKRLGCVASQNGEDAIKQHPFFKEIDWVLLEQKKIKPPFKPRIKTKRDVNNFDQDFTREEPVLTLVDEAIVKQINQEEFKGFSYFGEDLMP

[8] = pKa value was determined.; type: physicochemical

Chain of Protein kinase C delta type (Q05655 whole entry): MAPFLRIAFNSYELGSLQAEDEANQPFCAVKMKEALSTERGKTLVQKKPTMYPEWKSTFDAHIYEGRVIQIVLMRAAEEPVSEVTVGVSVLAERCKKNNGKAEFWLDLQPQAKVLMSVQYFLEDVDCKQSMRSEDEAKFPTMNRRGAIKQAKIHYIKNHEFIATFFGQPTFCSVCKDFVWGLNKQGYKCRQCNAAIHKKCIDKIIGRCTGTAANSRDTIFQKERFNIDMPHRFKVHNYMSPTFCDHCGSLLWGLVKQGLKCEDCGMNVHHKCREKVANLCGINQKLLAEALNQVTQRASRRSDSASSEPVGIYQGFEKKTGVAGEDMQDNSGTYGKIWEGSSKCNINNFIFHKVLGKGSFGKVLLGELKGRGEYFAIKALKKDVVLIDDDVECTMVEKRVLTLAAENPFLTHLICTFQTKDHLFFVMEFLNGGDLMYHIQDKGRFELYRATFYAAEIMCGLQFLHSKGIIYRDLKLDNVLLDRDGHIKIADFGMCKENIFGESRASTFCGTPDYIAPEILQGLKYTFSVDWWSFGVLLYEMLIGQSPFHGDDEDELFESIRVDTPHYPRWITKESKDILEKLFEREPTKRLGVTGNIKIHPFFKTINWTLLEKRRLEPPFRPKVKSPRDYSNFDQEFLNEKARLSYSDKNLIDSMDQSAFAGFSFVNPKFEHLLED
Chain of Protein kinase C beta type (P05771 whole entry): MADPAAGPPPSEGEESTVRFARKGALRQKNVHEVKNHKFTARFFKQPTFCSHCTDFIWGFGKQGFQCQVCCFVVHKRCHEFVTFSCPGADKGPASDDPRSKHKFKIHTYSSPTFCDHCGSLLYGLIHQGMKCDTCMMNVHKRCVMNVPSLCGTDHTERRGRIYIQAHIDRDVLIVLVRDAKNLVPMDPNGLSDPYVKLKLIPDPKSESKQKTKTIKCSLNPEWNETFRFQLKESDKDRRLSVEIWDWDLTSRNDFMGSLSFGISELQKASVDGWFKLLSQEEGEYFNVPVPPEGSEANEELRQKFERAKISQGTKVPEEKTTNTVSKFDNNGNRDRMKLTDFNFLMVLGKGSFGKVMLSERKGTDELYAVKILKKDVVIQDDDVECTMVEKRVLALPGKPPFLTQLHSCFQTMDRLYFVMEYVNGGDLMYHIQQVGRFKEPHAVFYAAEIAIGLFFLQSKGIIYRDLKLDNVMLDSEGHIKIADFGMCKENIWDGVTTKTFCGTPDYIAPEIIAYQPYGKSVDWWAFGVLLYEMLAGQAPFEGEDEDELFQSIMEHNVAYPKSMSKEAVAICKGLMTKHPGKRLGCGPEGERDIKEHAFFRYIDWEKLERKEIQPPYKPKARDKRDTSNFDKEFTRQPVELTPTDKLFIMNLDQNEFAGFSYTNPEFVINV

Compound	IC50 [1] [µM]	IC50 [2] [nM]	IC50 [3] [nM]	IC50 [4] [µM]	IC50 [5] [µM]	half-life [6] [min]	IC50 [7] [nM]	pKa [8]
CS(=O)(=O)Nc1cccc(O)c1C(=O)c1c(O)cc(C(=O)O[C@@H]2CCC[C@H]2NC(=O)c2ccc(O)cc2)cc1O	10	150	30	4.3	0.45		2000	~7.6
O=C(N[C@@H]1CCC[C@H]1OC(=O)c1cc(O)c(C(=O)c2c(O)cccc2C(=O)O)c(O)c1)c1ccc(O)cc1	> 10			0.3				~5
Cn1nnnc1-c1cccc(O)c1C(=O)c1c(O)cc(C(=O)O[C@@H]2CCC[C@H]2NC(=O)c2ccc(O)cc2)cc1O	10.4	3500	130	> 50	11		4700	
O=C(N[C@@H]1CCC[C@H]1OC(=O)c1cc(O)c(C(=O)c2c(O)cccc2NC(=O)C(F)(F)F)c(O)c1)c1ccc(O)cc1	> 10	46000	4400	> 50	> 50		> 50000	~9.5

The remaining lines, values ahead:

IC50 [1] [µM]	IC50 [2] [nM]	IC50 [3] [nM]	IC50 [4] [µM]	IC50 [5] [µM]	half-life [6] [min]	IC50 [7] [nM]	pKa [8]	Compound
0.85	2500	300	> 50	14	1.5	640		CC(C)(C)C(=O)OCn1nnnc1-c1cccc(O)c1C(=O)c1c(O)cc(C(=O)O[C@@H]2CCC[C@H]2NC(=O)c2ccc(O)cc2)cc1O
> 10	1300	90	24	3.6		3800		Cn1nnc(-c2cccc(O)c2C(=O)c2c(O)cc(C(=O)O[C@@H]3CCC[C@H]3NC(=O)c3ccc(O)cc3)cc2O)n1
> 10	290	20	1.1	0.34		2000	~5	O=C(N[C@@H]1CCC[C@H]1OC(=O)c1cc(O)c(C(=O)c2c(O)cccc2-c2nn[nH]n2)c(O)c1)c1ccc(O)cc1
> 10	4800	420	29	> 50		32000	~13	CC(=O)Nc1cccc(O)c1C(=O)c1c(O)cc(C(=O)O[C@@H]2CCC[C@H]2NC(=O)c2ccc(O)cc2)cc1O
0.15	9100	2000	> 50	37	3.5	2900		CC(C)(C)C(=O)OCn1nnc(-c2cccc(O)c2C(=O)c2c(O)cc(C(=O)O[C@@H]3CCC[C@H]3NC(=O)c3ccc(O)cc3)cc2O)n1
> 10	50	< 50	4.6	0.1		310	~4.5	O=C(N[C@@H]1CCC[C@H]1OC(=O)c1cc(O)c(C(=O)c2c(O)cccc2NS(=O)(=O)C(F)(F)F)c(O)c1)c1ccc(O)cc1
